“Also recorded” adds a separate entry of the source. Where two headings read alike, the source gives them in different places. Some results are limits rather than exact numbers.

We go through 16 compounds from PMC8147275, “Design, Synthesis, and Molecular Docking Study of New Tyrosyl-DNA Phosphodiesterase 1 (TDP1) Inhibitors Combining Resin Acids and Adamantane Moieties” (Pharmaceuticals, 2021).

The target of series [1] is T1, TDP1 (Homo sapiens, UniProt Q9NUW8).
T1 construct: inferred from the pET 16B vector and purification on Ni-chelating resin; made in house
Nature of the series: TDP1 assay: recombinant TDP1 with fluorescent biosensor (FAM/BHQ1), cell-free. The format is biochemical. The settings on record: recombinant TDP1 1.5 nM, biosensor 50 nM, 26 °C. Here is the method: The primary screening of the inhibitory activities against TDP1 was performed using an in vitro cell-free system involving the recombinant TDP1 and a fluorescent reporter probe as previously described.
The recombinant TDP1 was purified to homogeneity by chromatography on Ni-chelating resin and phosphocellulose P11 as previously described, using plasmid pET 16B-TDP1, kindly provided by Dr. K.W. Caldecott (University of Sussex, United Kingdom). The TDP1 activity measurements were carried out as described. Briefly, TDP1-biosensor with fluorofore (FAM) at the 5′-end and a fluorescence quencher (BHQ1) at the 3′-end at a final concentration of 50 nM were incubated in a 200 μL volume that contained TDP1 buffer (50 mM Tris-HCl pH 8.0, 50 mM NaCl, and 7 mM β-mercaptoethanol) supplemented with purified 1.5 nM TDP1 and various concentrations of inhibitor. Fluorescence measurements (Ex485/Em520 nm) were carried out during the linear phase of the reaction (from 0 to 8 min for TDP1) every 55 sec. The reactions were incubated at a constant temperature of 26 °C in a POLARstar OPTIMA fluorimeter (BMG LABTECH, GmbH). The influence of compounds was evaluated by comparing the fluorescence increase rate in the presence of compounds with that of DMSO control wells. The data were imported into the MARS Data Analysis 2.0 program (BMG LABTECH), and the IC50 values (the concentration of a compound required to reduce the enzyme activity by 50%) were calculated.

The nature of series [2]: Solubility observations (stock solutions, solvents, cell growth medium). It counts as physicochemical. The settings on record: light microscopy. Here is the method: (§1) Since we used the T98G glioblastoma cell line for the first time for our experiments, we first attempted to perform the cytotoxicity study in a range of concentrations from 10 to 100 µM, as we did previously with the TDP1 inhibitory compounds when working with the other cell lines. However, the cytotoxicity at 50 and 100 µM of our compounds turned out to be rather high in the T98G cell line. We then measured the cytotoxicity of individual TDP1 inhibitors at 2.5, 5, 10, and 25 µM. The studied compounds were prepared as 50 mM stock solutions in DMSO and added to T98G glioma cells at 2.5 µM to 25 µM concentrations, either individually or in combination with 1000 or 2000 µM of TMZ. […] They were therefore discarded from the later cytotoxicity studies.

Series [3] concerns T98G glioma cells. Nature of the series: Cytotoxicity (MTT) alone and in combination with temozolomide. The format is cell-based. Here is the method:
as §1
Individual TDP1 inhibitors were prepared as 50 mM stock solutions in DMSO and were added to the cells at 2.5, 5, 10, or 25 μM. Temozolomide was prepared as 200 mM stock solution in DMSO and was added at 1 mM or 2 mM concentrations, either alone or in combination with TDP1 inhibitors. T98G and SNB19 glioma cells were maintained in DMem/F12 medium supplemented with 10% foetal bovine serum, l-glutamine, and penicillin/streptomycin and were split at 10,000 cells/well into the 96-well plates for cytotoxicity experiments. The drugs or drug combinations were incubated with cells for 72 h, then the MTT reagent (3-(4,5-dimethylthiazol-2-yl)-2,5-diphenyltetrazolium bromide) was added for 4 h. The produced purple formazan dye reporting the activity of cellular oxireductases was dissolved overnight in 10% solution of acidified SDS and the absorbance was measured using a Tecan plate reader. Each concentration of individual substance or each drug combination was tested in triplicate. The data obtained were processed using MS Excel software and presented as histogram plots.

Series [4] has as its target T1, TDP1. The settings on record: Figure 2, known inhibitor; cited from earlier work.

T1 sequence (Q9NUW8 whole entry): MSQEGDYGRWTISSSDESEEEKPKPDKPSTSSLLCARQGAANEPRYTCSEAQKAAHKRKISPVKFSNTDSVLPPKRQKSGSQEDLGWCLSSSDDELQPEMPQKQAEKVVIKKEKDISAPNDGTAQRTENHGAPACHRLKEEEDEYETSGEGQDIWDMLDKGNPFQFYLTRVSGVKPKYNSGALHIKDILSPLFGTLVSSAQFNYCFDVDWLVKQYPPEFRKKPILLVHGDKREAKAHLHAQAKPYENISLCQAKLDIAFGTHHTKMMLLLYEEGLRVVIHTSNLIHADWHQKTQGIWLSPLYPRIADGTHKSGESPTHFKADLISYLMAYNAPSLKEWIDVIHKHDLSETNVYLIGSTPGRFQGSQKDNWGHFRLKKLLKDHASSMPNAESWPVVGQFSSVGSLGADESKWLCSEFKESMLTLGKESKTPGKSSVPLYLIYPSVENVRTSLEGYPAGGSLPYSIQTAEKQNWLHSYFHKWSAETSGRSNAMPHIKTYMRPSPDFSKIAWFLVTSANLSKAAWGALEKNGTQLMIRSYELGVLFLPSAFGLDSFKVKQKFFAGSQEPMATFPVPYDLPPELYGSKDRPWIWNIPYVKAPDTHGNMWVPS

By IC50 is commonly meant the concentration at which inhibition is half-maximal. In the case of `CC(C)c1ccc2c(c1)CC[C@H]1[C@](C)(CNC(=S)C34CC5CC(CC(C5)C3)C4)CCC[C@]21C` [Compound 8, N-abieta-8,11,13-trien-18-yladamantan-1-carbothioamide], the IC50 in series [1] is 2300 ± 800 nM. For the same compound, the “behaviour of stock solution dissolved in cell growth medium” value in series [2] is “formed visible micelles”.

For `CC(C)c1ccc2c(c1)CC[C@H]1[C@](C)(CNC(N)=O)CCC[C@]21C` [Compound 5, N-abieta-8,11,13-trien-18-ylurea], in series [1], the IC50 is over 15000 nM and the “IC50 (TDP1)” value is recorded as “no activity; also recorded: failed to inhibit TDP1”.

As to `Cn1nnc2c(C(N)=O)ncn2c1=O` [TMZ, temozolomide], the “cells surviving the treatment” value in series [3] (TMZ alone 1000 µM, 72 h, MTT) is ~ 95%. In addition, in series [3] (TMZ alone 2000 µM, 72 h, MTT), the “inhibition of cell viability” value is on record as ~ 40%.

For `CC(C)c1ccc2c(c1)CC[C@H]1[C@](C)(CNC(=S)NC34CC5CC(CC(C5)C3)C4)CCC[C@]21C` [Compound 3, N-abieta-8,11,13-trien-18-yl-N’-1-adamantylthiourea], in series [1], the IC50 turned out to be 1500 ± 500 nM.

Regarding `CC(C)c1ccc2c(c1)CC[C@H]1[C@](C)(NC(=O)NC34CC5CC(CC(C5)C3)C4)CCC[C@]21C` [Compound 9, N-1-adamantyl-N’-[(1R,4aS,10aR)-7-isopropyl-1,4a-dimethyl-1,2,3,4,4a,9,10,10a-octahydrophenanthren-1-yl]urea], the IC50 in series [1] came out at 570 ± 160 nM.

In the case of `CC(C)c1ccc2c(c1)CC[C@H]1[C@](C)(NC(=O)NC3C4CC5CC(C4)CC3C5)CCC[C@]21C` (stereo partly drawn) [Compound 10, N-2-adamantyl-N’-[(1R,4aS,10aR)-7-isopropyl-1,4a-dimethyl-1,2,3,4,4a,9,10,10a-octahydrophenanthren-1-yl]urea], the IC50 in series [1] amounted to 590 ± 150 nM.

In the case of `CC(C)c1ccc2c(c1)CC[C@H]1[C@](C)(CNC(=O)NC34CC5CC(CC(C5)C3)C4)CCC[C@]21C` [Compound 1, N-abieta-8,11,13-trien-18-yl-N’-1-adamantylurea], the IC50 in series [1] turned out to be 190 ± 30 nM.

For `CC(C)C1=CC2=CC[C@H]3[C@](C)(NC(=O)NC4C5CC6CC(C5)CC4C6)CCC[C@]3(C)C2CC1` (stereo partly drawn) [Compound 12, N-2-adamantyl-N’-[(1R,4aR,10aR)-7-isopropyl-1,4a-dimethyl-1,2,3,4,4a,4b,5,6,10,10a-decahydrophenanthren-1-yl]urea], the IC50 in series [1] came out at 1400 ± 300 nM.

In the case of `CC(C)c1ccc2c(c1)CC[C@H]1[C@](C)(CNC(=S)NC3C4CC5CC(C4)CC3C5)CCC[C@]21C` (stereo partly shown) [Compound 4, N-abieta-8,11,13-trien-18-yl-N’-2-adamantylthiourea], the IC50 in series [1] was 670 ± 190 nM.

Regarding `CC(C)c1ccc2c(c1)CC[C@H]1[C@](C)(CNC(=O)C3C4CC5CC(C4)CC3C5)CCC[C@]21C` (stereo partly shown) [Compound 7, N-abieta-8,11,13-trien-18-yladamantan-2-carboxamide], in series [1], the IC50 stood at 1800 ± 400 nM. Besides, the “behaviour of stock solution dissolved in cell growth medium” value in series [2] is “formed visible micelles”.

With `CC(C)c1ccc2c(c1)CC[C@H]1[C@](C)(CNC(=O)C34CC5CC(CC(C5)C3)C4)CCC[C@]21C` [Compound 6, N-abieta-8,11,13-trien-18-yladamantan-1-carboxamide], the IC50 in series [1] was found to be 940 ± 180 nM.

On to `CC(C)C1=CC2=CC[C@H]3[C@](C)(NC(=O)NC45CC6CC(CC(C6)C4)C5)CCC[C@]3(C)C2CC1` (stereo partly drawn) [Compound 11, N-1-adamantyl-N’-[(1R,4aR,10aR)-7-isopropyl-1,4a-dimethyl-1,2,3,4,4a,4b,5,6,10,10a-decahydrophenanthren-1-yl]urea], for which the IC50 in series [1] amounted to 1700 ± 600 nM.

With `CC(C)=CCC/C(C)=C/COc1ccc2c(-c3ccc(F)cc3)cc(=O)oc2c1` [C], the IC50 in series [4] is 500 nM.

As a reminder, the melting point is the temperature of the solid-liquid transition. Turning to `CC(C)c1ccc2c(c1)CC[C@H]1[C@](C)(CNC(=O)NC3C4CC5CC(C4)CC3C5)CCC[C@]21C` (stereo partly shown) [Compound 2, N-abieta-8,11,13-trien-18-yl-N’-2-adamantylurea], the melting point worked out at 150 °C. Besides, the IC50 in series [1] is 800 ± 200 nM. Moreover, in series [3] (combination with TMZ), the “sensitization of glioma T98G cells to TMZ” value is given as “most effective”.

For `CC(=O)C1=C(O)C=C2Oc3c(-c4csc(N/N=C/CC(C)CCC=C(C)C)n4)c(O)c(C)c(O)c3[C@@]2(C)C1=O` (stereo partly shown) [A], the IC50 in series [4] was 10.3 ± 0.4 nM.

Take `CC(C)CCCC(C)CCOC(=O)C12CC3CC(CC(C3)C1)C2` (stereo not shown) [E]: the IC50 in series [4] was 920 nM.
